Laboratory results taken from article PMC7942396, “Drug Repurposing Screen for Compounds Inhibiting the Cytopathic Effect of SARS-CoV-2” (Frontiers in Pharmacology, 2021).
Structures can show the parent of a compound that is named as a salt. Where two headings read alike, the source gives them in different places.

Tests used:
[1] = tested on: SARS-CoV-2 (USA_WA1/2020); test: microbe, parasite or virus in culture; format: cell-based; details: for EC50: read-out: CPE EC50
[2] = cytotoxicity counter-assay, Vero E6 cells without virus
[3] = read-out: Cytotox CC50, cytotoxicity counter-assay, Vero E6 cells without virus
[4] = SARS-CoV-2 CPE assay, Vero E6 cells, confirmed anti-SARS-CoV-2 compounds
[5] = SARS-CoV-2 CPE assay, Vero E6 cells, efficacy
[6] = Vero E6 cells without virus, 72 h
[7] = […], DMSO 0%, no-virus control 100%, hit confirmation
[8] = SARS-CoV-2 CPE assay, Vero E6 cells

| SMILES | % Cytotox (Vero E6 cells; [2]) [%] | CC50 (Vero E6 cells; [3]) [µM] | EC50 [1, 4] [µM] | CPE % Efficacy [1, 5] [%] | other results |
| --- | --- | --- | --- | --- | --- |
| COc1ccc(-c2cc(C(O)C3CCCCN3)c3ccccc3n2)cc1.Cl.Cl (stereo not drawn) [NSC-23925] | 49.3 | 10 | 5.62 | 40.3 |  |
| C/C(=N\NC(=S)N1CCC1)c1ccccn1 [NSC-319726] | 52.8 | 0.35 | 1.12 | 58.3 |  |
| Cc1ccc(C(=O)Nc2cccc(C(F)(F)F)c2)cc1Nc1nc(-c2cccnc2)nc2c1cnn2C [NVP-BHG712] |  |  | 2.51 | 123.5 | % Cytotox (Vero E6 cells): 58.4%; CC50 (Vero E6 cells): 3.98 µM |
| Cl.Oc1ccc2c3c1O[C@H]1c4[nH]c5ccc(N=C=S)cc5c4C[C@@]4(O)[C@@H](C2)N(CC2CC2)CC[C@]314 [Naltrindole isothiocyanate hydrochloride, reference compound] |  |  |  |  | % Cytotox (Vero E6 cells; [6]): <30%; CPE % Efficacy [1, 7]: 114.7%; EC50 [1]: 10 µM |
| OC(CNc1ccccc1)Cn1c2ccc(Br)cc2c2cc(Br)ccc21 (stereo not drawn) [P7C3] | 54.5 | 11.2 | 3.98 | 65.2 |  |
| COc1cccc2c1CCCC2CCCN1CCN(C2CCCCC2)CC1 (stereo not drawn) [PB-28] | 19.5 | 12.6 |  |  | CPE % Efficacy [1, 8]: 88.6%; EC50 [1, 8]: 11.2 µM |
| CCN(CC)CCCCNc1nc2cc(Cl)c(Cl)cc2nc1-c1ccc(-c2cccs2)s1 [PD-0220245] | 107.5 | 11.2 | 3.55 | 35.5 |  |
| CC(C)c1ccc(NC(=O)C(c2ccccc2)N(C)C(=O)Cc2c[nH]c3ccccc23)cc1 (stereo not drawn) [PG-01] | 110.5 |  | 3.55 | 98.0 |  |
| Cc1cccc(Nc2nc(N[C@@H]3CCCC[C@@H]3N)ncc2C(N)=O)c1 [PRT-060318] | 45.2 | 12.6 | 11.2 | 56.9 |  |
| Cc1cc(CC(C)CC(C)(C)C)n(O)c(=O)c1.NCCO (stereo not drawn) [Piroctone Olamine] | 46.6 | 1.78 | 4.47 | 61.2 |  |
| CCCOC(C(=O)OC1CCN(C)CC1)(c1ccccc1)c1ccccc1.Cl [Propiverine hydrochloride] | 0.0 |  | 11.2 | 44.6 |  |
| O=S(=O)(NCC1CC1)c1ccc(Nc2nccc(N3CCCc4cc(O)ccc43)n2)cc1 [Pyrintegrin] | 70.3 | 3.98 | 0.79 | 76.3 |  |
| Cc1ncc(NC(=O)c2cccc(C(F)(F)F)c2)cc1-c1cnc(OC2CCOCC2)c(N2CCOCC2)c1 [RAF-709] | 56.6 | 8.91 |  |  | CPE % Efficacy [1, 8]: 58.4%; EC50 [1, 8]: 14.1 µM |
| CCC(C)CNCC(=O)N1CCc2sccc2C1COc1cccc(C)c1 (stereo not drawn) [RU-SKI 43] | 21.3 |  |  |  | CPE % Efficacy [1, 8]: 72.7%; EC50 [1, 8]: 14.1 µM |
| COc1ccc(CN2CCN(CCCSc3cc(C(C)(C)C)c(O)c(C(C)(C)C)c3)CC2)c(OC)c1OC [S-15176 difumarate salt, reference compound] |  |  |  |  | % Cytotox (Vero E6 cells; [6]): <30%; CPE % Efficacy [1, 7]: 127.4%; EC50 [1]: 3.8 µM |
| COc1ccc(NS(=O)(=O)c2sc3ccc(Cl)cc3c2C)cc1N1CCNCC1 [SB 271046 hydrochloride, reference compound] |  |  |  |  | % Cytotox (Vero E6 cells; [6]): <30%; CPE % Efficacy [1, 7]: 107.5%; EC50 [1]: 10 µM |
| Cc1cccc2c1CC[C@H](CN1CCC(c3c(Cl)cccc3Cl)CC1)C[C@@H]2O.Cl [SB 612111 hydrochloride] | 59.7 | 12.6 | 8.91 | 53.8 |  |

| SMILES | % Cytotox (Vero E6 cells; [2]) [%] | CC50 (Vero E6 cells; [3]) [µM] | EC50 [1, 4] [µM] | CPE % Efficacy [1, 5] [%] | other results |
| --- | --- | --- | --- | --- | --- |
| COc1ccc(CCNCc2ccc(OC)c3ccccc23)cc1 [SBI-0087702] | 24.6 | 7.08 | 11.2 | 106.7 |  |
| COc1cc2ncnc(Sc3nnc(C)s3)c2cc1OC [SKLB1002] | 34.8 | 7.08 | 3.55 | 73.0 |  |
| O=C1NC(=O)/C(=C/c2cccc(C(F)(F)F)c2)S1 [SMI-4a] | 29.5 |  |  |  | CPE % Efficacy [1, 8]: 43.9%; EC50 [1, 8]: 12.6 µM |
| Cc1ccc(NC(=O)C(C)C)cc1C1CCN(Cc2ccc(Oc3ccc(F)c(F)c3)cc2)CC1.Cl [SNAP 94847 hydrochloride] | 95.1 | 12.6 | 4.47 | 60.0 |  |
| C/C(=N\NC(=O)c1cccc(S(=O)(=O)N2CCOCC2)c1)c1cc(Cl)ccc1O [SP2509] | 67.4 | 1 | 1.26 | 42.0 |  |
| CCc1ccccc1OC[C@@H](O)CN[C@H]1CCCc2ccccc21.Cl [SR 59230A hydrochloride] | 13.9 | 17.8 |  |  | CPE % Efficacy [1, 8]: 108.4%; EC50 [1, 8]: 11.2 µM |
| O=C(N[C@@H](c1ccccc1)[C@@H]1CCCCN1)c1cccc(C(F)(F)F)c1Cl [SSR-504734] | 15.7 | 7.94 |  |  | CPE % Efficacy [1, 8]: 31.7%; EC50 [1, 8]: 14.1 µM |
| Cc1cccc(Nc2nc(-c3ccncc3)cs2)c1 [STF-62247, reference compound] |  |  |  |  | CC50 (Vero E6 cells; read-out: Cytotox CC50, Vero E6 cells without virus, 72 h): 11.2 µM; Shape of concentration-response in the CPE assay ([1]; Figure 3): bell-shaped concentration-responses due to cytotoxicity; CPE % Efficacy [1, 7]: 107.1%; EC50 [1]: 1.1 µM |
| COc1cccc(CCc2ccccc2OCC(CN(C)C)OC(=O)CCC(=O)O)c1.Cl (stereo not drawn) [Sarpogrelate hydrochloride] | 21.2 | 15.8 | 11.2 | 30.1 |  |
| CO[C@@H]1[C@@H](O[C@@H]2O[C@H](C)[C@@H](O[C@H]3C[C@@](C)(O)[C@@H](O)[C@H](C)O3)[C@H](N(C)C)[C@H]2O)[C@@H](CC=O)C[C@@H](C)[C@@H](O[C@H]2CC[C@H](N(C)C)[C@@H](C)O2)/C=C/C=C/C[C@@H](C)OC(=O)C[C@H]1OC(C)=O [Spiramycin II] | 0.0 |  |  |  | CPE % Efficacy [1, 8]: 33.4%; EC50 [1, 8]: 14.1 µM |
| CC(CN(C)C)CN1c2ccccc2Sc2ccc(C(F)(F)F)cc21 (stereo not drawn) [Trifluomeprazine 2-butenedioate, reference compound] |  |  |  |  | % Cytotox (Vero E6 cells; [6]): <30%; CPE % Efficacy [1, 7]: 90.2%; EC50 [1]: 10 µM |
| CC(CN(C)C)CN1c2ccccc2Sc2ccccc21.CC(CN(C)C)CN1c2ccccc2Sc2ccccc21.O=C(O)C(O)C(O)C(=O)O (stereo not drawn) [Trimeprazine tartrate] | 0.0 |  |  |  | CPE % Efficacy [1, 8]: 49.5%; EC50 [1, 8]: 12.6 µM |
| CCCCNc1ncc2c(-c3ccc(F)cc3)nn(CC3CCC(N)CC3)c2n1 (stereo not drawn) [UNC-569] | 34.2 | 4.92 | 9.82 | 46.0 |  |
| CC[C@H](NC(=O)[C@H](CS(=O)(=O)CC1CC1)N[C@@H](c1ccc(F)cc1)C(F)(F)F)C(=O)C(=O)NC1CC1 [VBY-825, reference compound] |  |  |  |  | % Cytotox (Vero E6 cells; [6]): <30%; CPE % Efficacy [1, 7]: 97.8%; EC50 [1]: 0.14 µM |
| CC(C)(O)CNc1ncc(-c2ccnc(Nc3ccncc3)n2)c(CC2CC2)n1 [VPS34 Inhibitor 1, reference compound] |  |  |  |  | % Cytotox (Vero E6 cells; [6]): <30%; CPE % Efficacy [1, 7]: 98.3%; EC50 [1]: 1.4 µM |
| CCOC(=O)N[C@@H]1CC[C@@H]2[C@@H](C1)C[C@H]1C(=O)O[C@H](C)[C@H]1[C@H]2/C=C/c1ccc(-c2cccc(F)c2)cn1.O=S(=O)(O)O [Vorapaxar Sulfate] | 32.4 | 12.6 | 4.47 | 57.7 |  |
